Measurements taken from PMC5701749 (Biochemistry, 2017).
Where “and” joins values, the source holds several entries; their conditions need not be identical. Identical values can stand only once. Like-named read-outs stand apart in the source and are kept apart here.

What was measured:
murine P-gp [1] = biological target: T1, murine P-gp (Mus musculus, UniProt P21447)
mouse P-gp mdr1a [2] = biological target: T2, mouse P-gp mdr1a (Mus musculus, UniProt P21447); details: DMPC nanodiscs; for V2 (rate of ATP hydrolysis at infinite substrate concentration): footnote a = parameter reaching constraint set at >0; for K1 (substrate concentration for half-maximal stimulation of ATPase activity): footnote d = ambiguous, lack of ATPase stimulation
T2 sequence (P21447 whole entry): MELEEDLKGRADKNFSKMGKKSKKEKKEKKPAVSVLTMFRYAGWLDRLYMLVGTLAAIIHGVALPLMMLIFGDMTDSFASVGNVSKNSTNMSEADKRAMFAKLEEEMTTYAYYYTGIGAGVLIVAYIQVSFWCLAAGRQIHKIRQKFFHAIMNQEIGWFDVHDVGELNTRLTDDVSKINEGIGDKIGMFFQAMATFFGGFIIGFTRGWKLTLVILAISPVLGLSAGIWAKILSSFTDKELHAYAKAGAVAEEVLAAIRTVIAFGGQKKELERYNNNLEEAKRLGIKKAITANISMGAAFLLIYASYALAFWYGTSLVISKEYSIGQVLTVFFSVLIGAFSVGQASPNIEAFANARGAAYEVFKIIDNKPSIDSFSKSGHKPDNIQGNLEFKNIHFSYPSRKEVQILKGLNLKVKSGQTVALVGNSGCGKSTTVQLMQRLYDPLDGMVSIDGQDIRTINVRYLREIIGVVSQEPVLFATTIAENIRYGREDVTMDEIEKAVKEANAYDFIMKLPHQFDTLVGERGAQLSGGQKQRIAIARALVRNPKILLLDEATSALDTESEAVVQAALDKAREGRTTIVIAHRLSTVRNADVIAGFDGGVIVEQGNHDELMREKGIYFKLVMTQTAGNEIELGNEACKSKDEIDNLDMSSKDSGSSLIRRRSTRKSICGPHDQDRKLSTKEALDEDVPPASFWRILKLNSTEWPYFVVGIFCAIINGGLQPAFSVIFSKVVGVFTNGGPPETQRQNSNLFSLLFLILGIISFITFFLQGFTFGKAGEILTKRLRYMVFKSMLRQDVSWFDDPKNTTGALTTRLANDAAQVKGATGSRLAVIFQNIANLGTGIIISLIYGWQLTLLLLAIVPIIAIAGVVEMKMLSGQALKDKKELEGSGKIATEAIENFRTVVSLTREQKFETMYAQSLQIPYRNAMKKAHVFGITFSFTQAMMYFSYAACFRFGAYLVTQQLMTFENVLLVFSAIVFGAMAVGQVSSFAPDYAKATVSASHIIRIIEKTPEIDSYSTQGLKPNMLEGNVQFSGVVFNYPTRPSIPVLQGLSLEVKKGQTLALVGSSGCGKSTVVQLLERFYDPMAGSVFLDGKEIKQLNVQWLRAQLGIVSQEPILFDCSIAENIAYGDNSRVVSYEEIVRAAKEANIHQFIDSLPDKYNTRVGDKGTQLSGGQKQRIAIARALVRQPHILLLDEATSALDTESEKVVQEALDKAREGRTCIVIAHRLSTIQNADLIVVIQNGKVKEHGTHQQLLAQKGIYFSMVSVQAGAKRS

[3] = FCS binding of fluorescent probes to empty nanodiscs; details: ND = not determined because of minimal binding
mouse P-gp mdr1a [4] = biological target: T2, mouse P-gp mdr1a; details: E. coli lipid nanodiscs; for V1 (maximal rate of ATP hydrolysis when there is only activation): footnote b = parameter held constant
murine P-gp [5] = biological target: T1, murine P-gp; assay: biochemical
murine P-gp [6] = biological target: T1, murine P-gp; details: for displacement of BD-verapamil from P-gp (in words) / displacement of BD-vinblastine from P-gp (in words): FCS competition; for n (Hill coefficient): drug displacing BD-vinblastine from P-gp nanodiscs
mouse P-gp = mouse P-gp (Mus musculus, UniProt P21447); assay: ATPase assay in mouse P-gp vesicles; type: biochemical; details: concentration range studied
mouse P-gp, sequence (P21447 whole entry): as above

murine P-gp [7] = biological target: T1, murine P-gp; type: biochemical; details: inside-out murine P-gp vesicles, ATP-dependent, 117 nM Flutax-2, 37 °C
[8] = ATP and Vi (1 mM ATP, 240 μM Vi), vanadate-trapped, apparent KD
[9] = apo (control), nucleotide-free, apparent KD, high-affinity site

T1 sequence (P21447 whole entry): as above

K1 (substrate concentration for half-maximal stimulation of ATPase activity) (mouse P-gp mdr1a [2])	displacement of BD-verapamil from P-gp (in words) (murine P-gp [6])	displacement of BD-vinblastine from P-gp (in words) (murine P-gp [6])	n (Hill coefficient) (murine P-gp [6])	Compound	Kd (murine P-gp [1]; AMP-PNP (1 mM), apparent KD) [nM]	Kd (murine P-gp [1]; [8]) [nM]	Kd (murine P-gp [1]; [9]) [nM]	V2 (rate of ATP hydrolysis at infinite substrate concentration) (mouse P-gp mdr1a [2])	Kd [3]	V2 (rate of ATP hydrolysis at infinite substrate concentration) (mouse P-gp mdr1a [4])	stimulation of ATPase activity (in words) (mouse P-gp mdr1a [4])	V1 (maximal rate of ATP hydrolysis when there is only activation) (mouse P-gp mdr1a [4])	also measured
				BODIPY vinblastine [BD-vinblastine]	83 ± 12	290 ± 40	42 ± 6	21 ± 4 nmol of Pi min^−1 mg^−1	1700 nM and 1670 nM	156.5 ± 24.8 nmol of Pi min^−1 mg^−1	Neither BD-vinblastine or Flutax-2 stimulated ATPase activity	465 ^b nmol of Pi min^−1 mg^−1	increase in KD (decrease in affinity) with AMP-PNP (murine P-gp [1]; AMP-PNP vs nucleotide-free): 1.9 fold and 2 fold; increase in KD (decrease in affinity) in vanadate-trapped state (murine P-gp [1]; ATP and Vi vs nucleotide-free): 6.8 fold; stimulation of ATP hydrolysis over basal ATPase activity (mouse P-gp mdr1a [2]): ~ 2 fold
				BODIPY FL verapamil [BD-verapamil]									KD [3]: negligible binding
2.6 ± 1.0 µM	displaced	displaced	0.4± 0.1	CC[C@]1(O)C[C@@H]2CN(CCc3c([nH]c4ccccc34)[C@@](C(=O)OC)(c3cc4c(cc3OC)N(C)[C@H]3[C@@](O)(C(=O)OC)[C@H](OC(C)=O)[C@]5(CC)C=CCN6CC[C@]43[C@@H]65)C2)C1 [vinblastine]				>0 ^a nmol of Pi min^−1 mg^−1					IC50 (murine P-gp [5]): 17500 ± 11000 nM
1.3 ± 0.5 µM	did not displace	displaced	0.5 ± 0.5	CC(=O)O[C@H]1C(=O)[C@@]2(C)[C@H]([C@H](OC(=O)c3ccccc3)[C@]3(O)C[C@H](OC(=O)[C@H](O)[C@@H](NC(=O)c4ccccc4)c4ccccc4)C(C)=C1C3(C)C)[C@]1(OC(C)=O)CO[C@@H]1C[C@@H]2O [paclitaxel]				48 ± 6 nmol of Pi min^−1 mg^−1					

Compound	K1 (substrate concentration for half-maximal stimulation of ATPase activity) (mouse P-gp mdr1a [2])	displacement of BD-verapamil from P-gp (in words) (murine P-gp [6])	displacement of BD-vinblastine from P-gp (in words) (murine P-gp [6])	n (Hill coefficient) (murine P-gp [6])	Kd (murine P-gp [1]; AMP-PNP (1 mM), apparent KD) [nM]	Kd (murine P-gp [1]; [8]) [nM]	Kd (murine P-gp [1]; [9]) [nM]	V2 (rate of ATP hydrolysis at infinite substrate concentration) (mouse P-gp mdr1a [2])	Kd [3]	V2 (rate of ATP hydrolysis at infinite substrate concentration) (mouse P-gp mdr1a [4])	stimulation of ATPase activity (in words) (mouse P-gp mdr1a [4])	V1 (maximal rate of ATP hydrolysis when there is only activation) (mouse P-gp mdr1a [4])	also measured
Oregon Green 488 Paclitaxel [Flutax-2]	0.3 ± 0.7 ^d μM				530 ± 90	490 ± 80	520 ± 90	18 ± 2 nmol of Pi min^−1 mg^−1	3600 nM and 3630 nM	33.2 ± 46.8 nmol of Pi min^−1 mg^−1	no stimulation	500 ^b nmol of Pi min^−1 mg^−1	Kd (murine P-gp [1]; nucleotide-free, high-affinity interaction): 519 nM; stimulation of ATPase activity (in words) (mouse P-gp mdr1a [2]): does not stimulate ATPase activity; stimulation of ATPase activity (in words) (mouse P-gp): did not stimulate ATPase activity; K1 (substrate concentration for half-maximal stimulation of ATPase activity) (mouse P-gp mdr1a [4]; footnote d = ambiguous, lack of ATPase stimulation): 0.2 ± 0.3 ^d μM; initial transport rate (murine P-gp [7]): ~42 pmol (mg of total protein)^−1 min^−1
